Assay results reported in ChEMBL document CHEMBL3875178, “Discovery of oral-available resveratrol-caffeic acid based hybrids inhibiting acetylated and phosphorylated STAT3 protein” (Eur J Med Chem, 2016).

Columns and labels:
[1] = Growth inhibition of human MDA-MB-231 cells after 48 hrs by MTT assay; assay type: functional, cell-based; conditions: MDA-MB-231, 48 h
[2] = Growth inhibition of human HT-29 cells after 48 hrs by MTT assay; assay type: functional, cell-based; conditions: HT-29, 48 h

| SMILES | IC50 [1] [µM] | IC50 [2] [µM] |
| --- | --- | --- |
| COc1cc(/C=C/c2ccc(NC(=O)/C=C/c3cc(OC)c(O)c(OC)c3)cc2)cc(OC)c1 | 7.13 | 3.08 |
| COc1cc(/C=C/c2ccc(NC(=O)/C=C/c3cccc(F)c3)cc2)cc(OC)c1 | 17.3 | 16.8 |
| COc1cc(/C=C/c2ccc(NC(=O)/C=C/c3ccc(C#N)cc3)cc2)cc(OC)c1 | 7.74 | 3.32 |
| COc1cc(/C=C/c2ccc(NC(=O)/C=C/c3ccc(O)c(O)c3)cc2)cc(OC)c1 | 4.23 | 1.56 |
| COc1cc(/C=C/c2ccc(OC(=O)/C=C/c3ccc(C(F)(F)F)cc3)cc2)cc(OC)c1 | 6.91 | 9.09 |
| COc1cc(/C=C/c2ccc(NC(=O)/C=C/c3ccc(F)cc3F)cc2)cc(OC)c1 | > 20 | 18.1 |
| O=C(O)/C=C/c1ccc(O)c(O)c1 [CAFFEIC ACID] | > 100 | > 100 |
| COc1cc(/C=C/c2ccc(NC(=O)/C=C/c3ccccc3F)cc2)cc(OC)c1 | 2.38 | 2.82 |
| COc1cc(/C=C/c2ccc(OC(=O)/C=C/c3cc(OC)c(OC)c(OC)c3)cc2)cc(OC)c1 | 3.08 | 2.91 |
| Oc1ccc(/C=C/c2cc(O)cc(O)c2)cc1 [RESVERATROL] | > 100 | > 100 |
| COc1cc(/C=C/c2ccc(NC(=O)/C=C/c3ccc(F)cc3)cc2)cc(OC)c1 | 9.39 | 11.6 |
| COc1ccc(/C=C/C(=O)Nc2ccc(/C=C/c3cc(OC)cc(OC)c3)cc2)cc1 | 4.23 | 5.96 |
